Source: ChEMBL document CHEMBL6182898, “Design, synthesis and bioevaluation of novel hydrazide derivatives as enhancers of immunotherapy and DNA-damage response in antitumor therapy” (Eur J Med Chem, 2025)
Calls of active or inactive are those of the source. The calls are words filed in the database; no cut-off is given here.

Assays:
4T1 [1] = test: Induction of DNA damage in mouse 4T1 cells implanted in mouse assessed as increase in gamma-H2AX level at 50 mg/kg/day by immunofluorescence based analysis; assay type: functional, organism-based
[2] = Apparent volume of distribution in male Sprague-Dawley rat at 20 mg/kg, po measured for 0.083 to 12 hrs by LC-MS/MS analysis; assay type: ADME, organism-based; conditions: in vivo, time 0.083-12 hrs
4T1 [3] = test: Synergistic induction of DNA damage in mouse 4T1 cells assessed as decrease in PARP1 level at 1 uM incubated for 24 hrs in presence of Olaparib by Western blot analysis; assay type: functional, cell-based
4T1 [4] = test: Synergistic antitumor activity against mouse 4T1 cells implanted in mouse at 25 mg/kg/day in presence of olaparib relative to control; assay type: functional; conditions: read-out: TGI
[5] = Clast in male Sprague-Dawley rat at 2 mg/kg, iv measured for 0.083 to 12 hrs by LC-MS/MS analysis; assay type: ADME, organism-based; conditions: in vivo, time 0.083-12 hrs
[6] = target: Programmed cell death 1 ligand 1 (Mus musculus) (UniProt Q9EP73); test: Induction of PD-L1 degradation in mouse B16-F10 cells at 5 uM incubated for 24 hrs in presence of Bafilomycin A1 by Western blot analysis; assay type: cell-based
[7] = Toxicity in male C57BL/6J mouse implanted with mouse B16-F10 cells assessed as body weight change at 25 mg/kg, IG treated for 14 days consecutively in presence of NP-19; assay type: organism-based; conditions: in vivo, po, 336 h, time 14 day
B16-F10 [8] = test: Antitumor activity against mouse B16-F10 cells implanted in male C57BL/6J mouse at 25 mg/kg, IG treated for 14 days consecutively in presence of NP-19 relative to control; assay type: functional; conditions: B16-F10, po, 336 h, time 14 day, read-out: TGI
[9] = AUMC (0 to infinity) in male Sprague-Dawley rat at 2 mg/kg, iv measured for 0.083 to 12 hrs by LC-MS/MS analysis; assay type: ADME, organism-based; conditions: in vivo, time 0.083-12 hrs
[10] = AUC (0 to t) in male Sprague-Dawley rat at 20 mg/kg, po measured for 0.083 to 12 hrs by LC-MS/MS analysis; assay type: ADME, organism-based; conditions: in vivo, time 0.083-12 hrs
[11] = Tmax in male Sprague-Dawley rat at 20 mg/kg, po measured for 0.083 to 12 hrs by LC-MS/MS analysis; assay type: ADME, organism-based; conditions: in vivo, time 0.083-12 hrs
B16-F10 [12] = test: Induction of antitumor immunity in mouse B16-F10 cells implanted in male C57BL/6J mouse assessed as increase in T cell infiltration at 50 mg/kg, IG treated for 14 days consecutively by immunofluorescence based analysis; assay type: functional, organism-based; conditions: time 14.0 day
[13] = Apparent volume of distribution in male Sprague-Dawley rat at 2 mg/kg, iv measured for 0.083 to 12 hrs by LC-MS/MS analysis; assay type: ADME, organism-based; conditions: in vivo, time 0.083-12 hrs, read-out: Vz
Mus musculus = test: Effect on Ac-alpha-tubulin in mouse B16-F10 cells implanted in male C57BL/6J mouse at 50 mg/kg, IG treated for 14 days consecutively by Western blot analysis; assay type: functional, organism-based; conditions: time 14.0 day
[14] = MRT (0 to t) in male Sprague-Dawley rat at 2 mg/kg, iv measured for 0.083 to 12 hrs by LC-MS/MS analysis; assay type: ADME, organism-based; conditions: in vivo, time 0.083-12 hrs
[15] = target: Programmed cell death 1 ligand 1 (Mus musculus) (UniProt Q9EP73); test: Induction of PD-L1 degradation in mouse B16-F10 cells assessed as increase in CTSB level at 0.313 to 10 uM incubated for 24 hrs by Western blot analysis; assay type: cell-based; conditions: dose 0.313-10 µM
4T1 [16] = test: Induction of DNA damage in mouse 4T1 cells assessed as increase in gamma-H2AX level at 2 uM incubated for 24 hrs by Western blot analysis; assay type: functional, cell-based
[17] = target: T1, Histone deacetylase 3 (Mus musculus) (UniProt O88895); test: In vivo inhibition of HDAC3 in mouse B16-F10 cells implanted in male C57BL/6J mouse assessed as decrease in PD-L1 level at 50 mg/kg, IG treated for 14 days consecutively by Western blot analysis; assay type: functional, organism-based; conditions: time 14.0 day
T1 sequence (whole entry): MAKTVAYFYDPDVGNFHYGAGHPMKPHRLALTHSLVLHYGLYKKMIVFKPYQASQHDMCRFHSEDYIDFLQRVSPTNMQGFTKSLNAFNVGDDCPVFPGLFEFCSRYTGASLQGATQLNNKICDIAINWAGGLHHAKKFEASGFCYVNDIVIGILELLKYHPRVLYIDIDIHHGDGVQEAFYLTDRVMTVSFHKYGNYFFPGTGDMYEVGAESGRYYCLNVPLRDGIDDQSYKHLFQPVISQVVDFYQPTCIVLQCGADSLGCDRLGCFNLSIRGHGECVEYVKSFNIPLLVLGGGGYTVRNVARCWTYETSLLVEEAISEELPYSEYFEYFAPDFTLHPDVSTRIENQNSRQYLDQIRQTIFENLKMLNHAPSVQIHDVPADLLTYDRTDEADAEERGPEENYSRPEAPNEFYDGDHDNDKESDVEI

[18] = VRT (0 to t) in male Sprague-Dawley rat at 20 mg/kg, po measured for 0.083 to 12 hrs by LC-MS/MS analysis; assay type: ADME, organism-based; conditions: in vivo, time 0.083-12 hrs
[19] = VRT (0 to t) in male Sprague-Dawley rat at 2 mg/kg, iv measured for 0.083 to 12 hrs by LC-MS/MS analysis; assay type: ADME, organism-based; conditions: in vivo, time 0.083-12 hrs
[20] = MRT (0 to infinity) in male Sprague-Dawley rat at 20 mg/kg, po measured for 0.083 to 12 hrs by LC-MS/MS analysis; assay type: ADME, organism-based; conditions: in vivo, time 0.083-12 hrs
[21] = AUMC (0 to t) in male Sprague-Dawley rat at 20 mg/kg, po measured for 0.083 to 12 hrs by LC-MS/MS analysis; assay type: ADME, organism-based; conditions: in vivo, time 0.083-12 hrs
[22] = MRT (0 to infinity) in male Sprague-Dawley rat at 2 mg/kg, iv measured for 0.083 to 12 hrs by LC-MS/MS analysis; assay type: ADME, organism-based; conditions: in vivo, time 0.083-12 hrs
[23] = target: Programmed cell death 1 ligand 1 (Mus musculus, UniProt Q9EP73); test: Induction of PD-L1 degradation in mouse B16-F10 cells incubated for 24 hrs by Western blot analysis; assay type: cell-based
4T1 [24] = test: Synergistic induction of DNA damage in mouse 4T1 cells implanted in mouse assessed as decrease in PARP level at 25 mg/kg/day in presence of olaparib by immunofluorescence based analysis; assay type: functional, organism-based
[25] = AUMC (0 to infinity) in male Sprague-Dawley rat at 20 mg/kg, po measured for 0.083 to 12 hrs by LC-MS/MS analysis; assay type: ADME, organism-based; conditions: in vivo, time 0.083-12 hrs
[26] = Toxicity in male C57BL/6J mouse implanted with mouse B16-F10 cells assessed as histopathological damage in heart at 25 mg/kg, IG treated for 14 days consecutively in presence of NP-19 by H and E staining based analysis; assay type: organism-based; conditions: in vivo, po, 336 h, time 14 day
[27] = target: T1, Histone deacetylase 3 (Mus musculus); test: In vivo inhibition of HDAC3 in mouse B16-F10 cells implanted in male C57BL/6J mouse assessed as increase in Ac-H3 level at 50 mg/kg, IG treated for 14 days consecutively by Western blot analysis; assay type: functional, organism-based; conditions: time 14.0 day
[28] = Toxicity in male C57BL/6J mouse implanted with mouse B16-F10 cells assessed as histopathological damage in liver at 50 mg/kg, IG treated for 14 days consecutively by H and E staining based analysis; assay type: organism-based; conditions: in vivo, po, 336 h, time 14 day

Chain of Programmed cell death 1 ligand 1 (Mus musculus) (Q9EP73 whole entry): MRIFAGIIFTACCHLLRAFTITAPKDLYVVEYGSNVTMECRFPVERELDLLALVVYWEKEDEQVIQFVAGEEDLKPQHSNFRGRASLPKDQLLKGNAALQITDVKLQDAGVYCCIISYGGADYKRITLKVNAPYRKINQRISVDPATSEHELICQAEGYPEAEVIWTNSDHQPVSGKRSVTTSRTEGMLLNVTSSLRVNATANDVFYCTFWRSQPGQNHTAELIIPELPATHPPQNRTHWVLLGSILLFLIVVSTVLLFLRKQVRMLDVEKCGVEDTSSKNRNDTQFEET
Chain of Programmed cell death 1 ligand 1 (Q9EP73 whole entry): as above

With `CCCNNC(=O)CCCCCCNC(=O)c1cnc(-c2ccc(NC(=O)OC(C)(C)C)cc2)s1` the Activity (4T1 [1]) was “Active”, the Vz [2] was 2785.62 L/kg and the Activity (4T1 [3]) was “Active”. For the same molecule, the inhibition in vivo at 25 mg/kg/day (4T1 [4]) was 88%, the Clast [5] was 0.24 ng/mL and the Activity [6] was “inactive”. For the same molecule, the Activity [7] was “Non-toxic”, the inhibition in vivo at 25 mg/kg (B16-F10 [8]) was 65% and the AUMC [9] was 238.68 hr.hr.ug/L. For the same molecule, the AUC(0-t) [10] was 30.8 ng·h/mL, the Tmax [11] was 43.2 min and the Activity (B16-F10 [12]) was “Active”. The Vd [13] was 10.6 L/kg, the Activity (Mus musculus) was “No effect” and the MRT last [14] was 20.4 min. The Activity [15] was “Active”, the Activity (4T1 [16]) was “Active” and the inhibition [17] was “Active”. For the same molecule, the VRT(t) [18] was 6.38 h², the VRT(t) [19] was 0.55 h² and the MRT inf [20] was 188 min. For the same molecule, the AUMCt [21] was 77.04 hr.hr.ug/L, the MRT inf [22] was 22.2 min and the DC50 [23] was 4.17 µM. For the same molecule, the Activity (4T1 [24]) was “Active”, the AUMC [25] was 97.74 hr.hr.ug/L and the Activity [26] was “Non-toxic”. For the same molecule, the inhibition [27] was “Active” and the Activity [28] was “Non-toxic”.
